Data from patent US11286258B2, “Nature-inspired anticancer and antibacterial motifs and pharmaceutical composition thereof” (University of Sharjah, priority 2020, dated 2022).

Legend:
[1] = tested on: normal epithelial cells (HMEC); assay: Cell viability, normal epithelial cells; assay type: cell-based; conditions: Homo sapiens, 48 h of drug treatment, average of three experiments
Experimental: (§1) Cell viability studies: Cell viability was assessed using the MTT assay as described before. In brief, all cancer cell lines were seeded at a density of 4×10^4/well in 96 well flat-bottom plates. After 24 h from seeding, cells were treated with the synthesized compounds and left for an incubation period of 48 h. Upon reaching the indicated time point, the media was removed and replaced with 200 μL fresh media containing 0.5 mg/mL of MTT tetrazolium dye (Sigma-Aldrich). Cells were then incubated with MTT solution for 2 h at 37° C. The resultant formazan crystals were dissolved in 200 μl/well of DMSO and absorbance was measured at 570 nm using a microplate reader (Thermo Scientific).

HCT-116 cells = assay: Western blot, apoptotic biomarkers, tumor suppressor genes and oncogenes, HCT-116; assay type: cell-based, human; conditions: for PARP cleavage / Cleavage of caspase7 and caspase-3 / Levels of p53 proteins / c-Myc oncogene level: HCT-116; for PARP cleavage / Cleavage of caspase7 and caspase-3: 1 to 4 μM, 48 h; for Cleavage of caspase7 and caspase-3: clear at 4 μM; for Levels of p53 proteins: at higher concentrations; for c-Myc oncogene level: dose-dependent manner; for Levels of BAX: treated cells, parallel to decreased p53
Experimental: (§2) Western blotting (apoptotic biomarkers, tumor suppressor genes and oncogenes): Hep3B and HCT-116 cells were treated with 1f and 1h compounds with increasing concentrations from 1 to 4 μM for 48 h. After reaching the time point, proteins were extracted from the collected cells after their lyses, and protein quantification was performed using a Detergent compatible (DC) protein assay kit (Bio-Rad) following the manufacturer's instructions. 12% SDS-polyacrylamide gels were used to separate the proteins, following the proteins were transferred onto nitrocellulose membrane using a semi-dry transfer cell. After transfer, membranes were incubated with primary antibodies and the incubation was left overnight at 4° c. The following antibodies were implicated: anti-β actin (Cell Signalling #4970), anti-caspase3 (Cell Signalling #14220), anti-caspase-7 (Cell Signalling33 #9492), anti-PARP (Cell Signalling #9532), anti-P53 (Cell Signalling #2527), anti-C-myc (Cell Signalling #18583), and anti-BAX (#5023). Finally, membranes were incubated with secondary conjugated with horseradish peroxidase. The indicated proteins were detected by chemiluminescence.

Hep3B cells = assay: Western blot, apoptotic biomarkers, tumor suppressor genes and oncogenes, Hep3B; assay type: cell-based, human; conditions: for PARP cleavage / Cleavage of caspase7 and caspase-3: 1 to 4 μM, 48 h; for Cleavage of caspase7 and caspase-3: clear at 4 μM; for c-Myc oncogene level: dose-dependent manner
Experimental: as §2

SKOV3 = assay: MTT cell viability, SKOV3; assay type: cell-based; conditions: Homo sapiens, SK-OV-3; 48 h of drug treatment; average of three experiments
Experimental: as §1

SKBR3 = assay: MTT cell viability, SKBR3; assay type: cell-based; conditions: Homo sapiens, SK-BR-3; breast cancer; 48 h of drug treatment; average of three experiments
Experimental: as §1

MDA-MB-231 = assay: MTT cell viability, MDA-MB-231; assay type: cell-based; conditions: Homo sapiens, breast cancer, 48 h of drug treatment, average of three experiments
Experimental: as §1

JIMT1 = assay: MTT cell viability, JIMT1; assay type: cell-based; conditions: Homo sapiens, JIMT-1; breast cancer; 48 h of drug treatment; average of three experiments
Experimental: as §1

MDA-MB-468 = assay: MTT cell viability, MDA-MB-468; assay type: cell-based; conditions: Homo sapiens, breast cancer, 48 h of drug treatment, average of three experiments
Experimental: as §1

AGS = assay: MTT cell viability, AGS; assay type: cell-based; conditions: Homo sapiens, stomach cancer, 48 h of drug treatment, average of three experiments
Experimental: as §1

SKBR3 and SKOV3 = assay: Crystal violet and DAPI staining; assay type: cell-based, human; conditions: compared to compounds 1d and 1k; 48 h
Experimental: Colony formation assay: Human Normal epithelial cells, SKBR3, and SKOV3 cells were treated with 1d, 1e and 1k compounds with indicated concentrations for 48 h. Then cells were fixed with colony fixation solution (Acetic acid/Methanol (1:7) vol/vol) at room temperature. 15 minutes later fixation solution was removed and cells were washed again carefully with 1×PBS. Cells were stained with 0.5% crystal violet at room temperature for 20 minutes. Crystal violet was removed and cells were washed carefully 3 times with distilled water to remove excess dye. Colony growth was visualized by crystal violet staining. DAPI staining: SKBR3 and SKOV3 cells were treated with indicated compounds. After 48 h of treatment, the media were removed from cell lines and cells were washed with 1× cold PBS. Cells were fixed with (Acetic acid/Methanol (1:7) vol/vol)) solution for 15 minutes at RT and then washed with 1× cold PBS. Permeabilization was performed with 0.1% Triton X-100 for 5 minutes and then cells were washed with 1× cold PBS. Cells were stain with DAPI solution for 15 minutes at RT and then cells were washed 3 times with 1× cold PBS. Images were taken using a fluorescence microscope.

Hela cells = assay: Western blot, autophagy- and iron metabolism-related proteins, Hela; assay type: cell-based, human
Experimental: (§3) Western Blotting (autophagy- and iron metabolism-related proteins): Cells were grown in DMEM supplemented with 10% FBS and 1×PEST (Penicillin and streptomycin antibiotics) at 37° C. in incubator having humidified atmosphere with 5% CO2. The media were removed and cells were washed twice with 1× cold PBS. Cells lysis was performed with RIPA lysis buffer containing (150 mM sodium chloride, 1.0% NP-40, 0.1% SDS, 50 mM Tris pH 8.0, 0.5% sodium deoxycholate supplemented with protease inhibitors cocktail). Cells were kept on icebox during the lysis process. Cold lysis buffer was added to each well directly and then cells were scraped and collected in 1.5 ml Eppendorf tube. Cell lysis was kept on icebox for 20 minutes and then centrifuged at 4° C. for 10 minutes. The supernatant was collected and the pellet was discarded. After, protein quantification, samples were boiled in 5× loading buffer at 95° C. for 5 minutes. After completion of the gel running and transfer process, the membrane was stained with ponceau solution. After that, the membrane was washed with 1×TBST and then blocked in 5% non-fat dry milk for 1 hr at room temperature. The membrane was washed 3 times with 1×TBST and then incubated with indicated primary antibodies at 4° C. overnight. Primary antibodies were removed; the membrane was washed 3 times with 1×TBST and then incubated with secondary antibodies for 2 h at room temperature. Secondary antibodies were diluted in 5% non-fat dry milk in 1× TB ST. After removal of the secondary antibody, the membrane was washed 3 times with 1×TBST. The membrane was incubated in ECL solution and the signal was developed using Gel Doc system from Biorad.

SKBR3 cells = assay: Western blot, autophagy- and iron metabolism-related proteins, SKBR3; assay type: cell-based, human
Experimental: as §3

| IC50 (SKOV3) [µM] | IC50 (SKBR3) [µM] | IC50 (MDA-MB-231) [µM] | IC50 (MDA-MB-468) [µM] | IC50 (AGS) [µM] | SMILES | IC50 [1] [µM] | PARP cleavage (HCT-116 cells) | Cleavage of caspase7 and caspase-3 (HCT-116 cells) | Levels of p53 proteins (HCT-116 cells) | c-Myc oncogene level (HCT-116 cells) | Levels of BAX (HCT-116 cells) | PARP cleavage (Hep3B cells) | Cleavage of caspase7 and caspase-3 (Hep3B cells) | c-Myc oncogene level (Hep3B cells) | IC50 (JIMT1) [µM] | Expression and metabolism of autophagy marker LC3B1/II (Hela cells) | further results |
| --- | --- | --- | --- | --- | --- | --- | --- | --- | --- | --- | --- | --- | --- | --- | --- | --- | --- |
| – | – | – | – | – | Cc1ccc2c(c1)c1c3n2[C@@]2(C=C/C(=N\Nc4ccc(C(F)(F)F)cc4)CC2)CC[C@@H]3NCC1 [Compound 1h] | 11.53 ± 0.04 | PARP cleavage | cleavage | decreased | downregulate | decreased levels | PARP cleavage | cleavage | downregulate | – | – | – |
| 3.84 ± 0.21 | 1.96 ± 0.08 | 3.63 ± 0.06 | 2.5 ± 0.13 | 3.31 ± 0.12 | FC(F)(F)c1ccc(N/N=C2\C=C[C@@]3(CC2)CC[C@@H]2NCCc4c2n3c2ccccc42)cc1 (racemic) [Compound 1e] | 2.91 ± 0.07 | – | – | – | – | – | – | – | – | 3.08 ± 0.14 | upregulate | Nuclear damage in cancer cell lines (DAPI staining) (SKBR3 and SKOV3): greater levels of nuclear damage; Expression of Ferritin heavy chain (FTH1) (Hela cells): inhibits; Expression of cell cycle marker CDK6 (Hela cells): inhibits; Expression of cellular iron exporter protein Ferroportin (FPN) (Hela cells): inhibits; Expression of BECLIN-1 (SKBR3 cells): induced; Expression of Ferritin (FTH1) (SKBR3 cells): induced; Expression of LC3B1/II (SKBR3 cells): induced; Expression of pH2AX (SKBR3 cells): induced |
| 4.68 ± 0.22 | 4.1 ± 0.21 | 4.03 ± 0.16 | 2.49 ± 0.16 | 4.66 ± 0.15 | COc1ccc2c(c1)c1c3n2[C@@]2(C=C/C(=N\Nc4ccc(C(F)(F)F)cc4)CC2)CC[C@@H]3NCC1 [Compound 1k] | 28.01 ± 0.09 | – | – | – | – | – | – | – | – | 3.49 ± 0.06 | upregulate | Expression of DNA damage marker pH2AX (Hela cells): induce |
| – | – | – | – | – | FC(F)(F)Oc1ccc(N/N=C2\C=C[C@@]3(CC2)CC[C@@H]2NCCc4c2n3c2ccccc42)cc1 [Compound 1f] | 18.38 ± 0.05 | PARP cleavage | cleavage | decreased | downregulate | decreased levels | PARP cleavage | cleavage | downregulate | – | – | – |
